Laboratory results taken from patent US8809361B2, “2,3-dihydrofuro[2,3-c]pyridines, their use as modulators of the G-protein-coupled receptor GPR119 and pharmaceutical compositions thereof” (Boehringer Ingelheim International GmbH, priority 2012, dated 2014).

Target: T1, human GPR119 (Homo sapiens, UniProt Q8TDV5)
T1 construct: expression vector for human GPR119 cDNA (Acc. No. NP_848566); expressed in transfected cells
T1 sequence (Q8TDV5 1-335): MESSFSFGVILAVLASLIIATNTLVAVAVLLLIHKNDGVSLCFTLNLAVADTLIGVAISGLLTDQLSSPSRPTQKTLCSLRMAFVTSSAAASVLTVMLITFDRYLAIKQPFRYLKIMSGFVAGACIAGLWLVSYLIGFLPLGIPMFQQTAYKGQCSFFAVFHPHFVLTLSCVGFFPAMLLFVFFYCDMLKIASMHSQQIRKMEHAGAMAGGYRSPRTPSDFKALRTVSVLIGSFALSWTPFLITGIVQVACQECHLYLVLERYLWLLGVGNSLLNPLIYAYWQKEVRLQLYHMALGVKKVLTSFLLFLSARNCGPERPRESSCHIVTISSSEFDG
Test: GPR119 activation / intracellular cAMP stimulation, AlphaScreen cAMP Assay in Min-6/hGPR119 cells
Assay type: cell-based
Details: MIN6 cells stably transfected with human GPR119, 45 minutes incubation at room temperature
Procedure: The compounds of formula I according to the invention modulate the activity of the G-protein-coupled receptor GPR119. The effect of the compounds on the activation of GPR119 and on the stimulation of intracellular cAMP concentration is determined using the AlphaScreen cAMP Assay Kit (Cat. No. #6760625R) made by PerkinElmer.
MIN6 cells [Miyazaki J et al., Endocrinology. 1990 July; 127(1):126-32] are stably transfected with an expression vector for human GPR119 cDNA (Acc. No. NP_848566). Min-6/hGPR119 cells are cultured in DMEM, 10% FBS, 50 μM β-mercaptoethanol, 0.3 mg/mL Geniticin, 2 mM GlutaMAX at 37° C., 5% CO2. For the assay, the cells are seeded in Optiplates (white, 384-well, 160W-barcoded, TC, sterile with lid, Cat. No. #6007688 (Perkin Elmer); 10000 cells/well; 50 μL). The plates covered with lids are then incubated for 24 hours at 37° C., 5% CO2. After the medium is aspirated from the wells completely, 10 ill of the test compound are added, the compounds are diluted using stimulating buffer (140 mM NaCl, 3.6 mM KCl, 0.5 mM NaH2PO4, 0.5 mM MgSO4, 1.5 mM CaCl2, 10 mM Hepes, 5 mM NaHCO3; pH 7.4. 0.5 mM IBMX and 0.1% BSA, the final DMSO concentration is 1%). After 45 minutes incubation at room temperature (approx. 20° C.), the cAMP concentrations are determined using the AlphaScreen cAMP Assay Kit (Cat. No. #6760625R from PerkinElmer).

Compound	EC50 [nM]
CC(C)(C)OC(=O)N1CCC2(CC1)CC1(Cc3cc(N4CCN(S(C)(=O)=O)CC4)ncc3O1)C2 [Example 21, 5-(4-Methanesulfonyl-piperazin-1-yl)-1″-tert-butoxycarbonyl-dispiro[2,3-dihydrofuro[2,3-c]pyridine-2,1′-cyclobutane-3′,4″-piperidine]]	77
CS(=O)(=O)c1ccc(-c2cc3c(cn2)OC2(C3)CC3(CCN(CC4(C(F)(F)F)CC4)CC3)C2)cc1 [Example 5, 5-(4-Methylsulfonyl-phenyl)-1″-[(1-trifluoromethyl-cyclopropyl)-methyl]-dispiro[2,3-dihydrofuro[2,3-c]pyridine-2,1′-cyclobutane-3′,4″-piperidine]]	362
CC(C)(C)OC(=O)N1CCC2(CC1)CC1(Cc3cc(C4=CCN(S(C)(=O)=O)CC4)ncc3O1)C2 [Example 2, 5-(1-Methanesulfonyl-1,2,3,6-tetrahydro-pyridin-4-yl)-1″-tert-butoxycarbonyl-dispiro[2,3-dihydrofuro[2,3-c]pyridine-2,1′-cyclobutane-3′,4″-piperidine]]	50
CC(C)(C)OC(=O)N1CCC2(CC1)CC1(Cc3cc(-c4ccc(S(C)(=O)=O)cc4C#N)ncc3O1)C2 [Example 31, 5-(2-Cyano-4-methylsulfonyl-phenyl)-1″-tert-butoxycarbonyl-dispiro[2,3-dihydrofuro[2,3-c]pyridine-2,1′-cyclobutane-3′,4″-piperidine]]	5
CC1=C(c2cc3c(cn2)OC2(C3)CC3(CCN(C(=O)OC(C)(C)C)CC3)C2)CCN(S(C)(=O)=O)C1 [Example 8, 5-(1-Methanesulfonyl-5-methyl-1,2,3,6-tetrahydro-pyridin-4-yl)-1″-tert-butoxycarbonyl-dispiro[2,3-dihydrofuro[2,3-c]pyridine-2,1′-cyclobutane-3′,4″-piperidine]]	19
CC(C)(C)OC(=O)N1CCC2(CC1)CC1(Cc3cc(-c4ccc(C#N)cc4F)ncc3O1)C2 [Example 14, 5-(4-Cyano-2-fluoro-phenyl)-1″-tert-butoxycarbonyl-dispiro[2,3-dihydrofuro[2,3-c]pyridine-2,1′-cyclobutane-3′,4″-piperidine]]	60
CCc1cnc(N2CCC3(CC2)CC2(Cc4cc(-c5ccc(S(C)(=O)=O)cc5)ncc4O2)C3)nc1 [Example 4, 1″-(5-Ethyl-pyrimidin-2-yl)-5-(4-methylsulfonyl-phenyl)-dispiro[2,3-dihydrofuro[2,3-c]pyridine-2,1′-cyclobutane-3′,4″-piperidine]]	18
CC(C)(F)CN1CCC2(CC1)CC1(Cc3cc(-c4ccc(S(C)(=O)=O)cc4)ncc3O1)C2 [Example 6, 1″-(2-Fluoro-2-methyl-propyl)-5-(4-methylsulfonyl-phenyl)-dispiro[2,3-dihydrofuro[2,3-c]pyridine-2,1′-cyclobutane-3′,4″-piperidine]]	135

More lines, now with the values ahead:

EC50 [nM]	Compound
10	CS(=O)(=O)N1CC=C(c2cc3c(cn2)OC2(C3)CC3(CCN(c4nnc(C(F)(F)F)s4)CC3)C2)CC1 [Example 20, 5-(1-Methanesulfonyl-1,2,3,6-tetrahydro-pyridin-4-yl)-1″-(5-trifluoromethyl-[1,3,4]thiadiazol-2-yl)-dispiro[2,3-dihydrofuro[2,3-c]pyridine-2,1′-cyclobutane-3′,4″-piperidine]]
6	CS(=O)(=O)N1CC=C(c2cc3c(cn2)OC2(C3)CC3(CCN(c4ncc(C(F)(F)F)cn4)CC3)C2)CC1 [Example 32, 5-(1-Methanesulfonyl-1,2,3,6-tetrahydro-pyridin-4-yl)-1″-(5-trifluoromethyl-pyrimidin-2-yl)-dispiro[2,3-dihydrofuro[2,3-c]pyridine-2,1′-cyclobutane-3′,4″-piperidine]]
12	CC(C)c1noc(N2CCC3(CC2)CC2(Cc4cc(C5=CCN(S(C)(=O)=O)CC5)ncc4O2)C3)n1 [Example 23, 1″-(3-Isopropyl-[1,2,4]oxadiazol-5-yl)-5-(1-methanesulfonyl-1,2,3,6-tetrahydro-pyridin-4-yl)-dispiro[2,3-dihydrofuro[2,3-c]pyridine-2,1′-cyclobutane-3′,4″-piperidine]]
8	C[C@@H](OC(=O)N1CCC2(CC1)CC1(Cc3cc(C4=CCN(S(C)(=O)=O)CC4)ncc3O1)C2)C(F)(F)F [Example 33, 5-(1-Methanesulfonyl-1,2,3,6-tetrahydro-pyridin-4-yl)-1″-[(R)-2,2,2-trifluoro-1-methyl-ethyloxycarbonyl]-dispiro[2,3-dihydrofuro[2,3-c]pyridine-2,1′-cyclobutane-3′,4″-piperidine]]
16	CC(C)OC(=O)N1CCC2(CC1)CC1(Cc3cc(C4=CCN(S(C)(=O)=O)CC4)ncc3O1)C2 [Example 10, 1″-(Isopropyloxycarbonyl)-5-(1-methanesulfonyl-1,2,3,6-tetrahydro-pyridin-4-yl)-dispiro[2,3-dihydrofuro[2,3-c]pyridine-2,1′-cyclobutane-3′,4″-piperidine]]
8	CCCc1nc(N2CCC3(CC2)CC2(Cc4cc(C5=CCN(S(C)(=O)=O)CC5)ncc4O2)C3)no1 [Example 26, 5-(1-Methanesulfonyl-1,2,3,6-tetrahydro-pyridin-4-yl)-1″-(3-n-propyl-[1,2,4]oxadiazol-3-yl)-dispiro[2,3-dihydrofuro[2,3-c]pyridine-2,1′-cyclobutane-3′,4″-piperidine]]
42	Cc1cnc(N2CCC3(CC2)CC2(Cc4cc(-c5ccc(S(C)(=O)=O)cc5)ncc4O2)C3)nc1 [Example 7, 1″-(5-Methyl-pyrimidin-2-yl)-5-(4-methylsulfonyl-phenyl)-dispiro[2,3-dihydrofuro[2,3-c]pyridine-2,1′-cyclobutane-3′,4″-piperidine]]
10	CCCc1noc(N2CCC3(CC2)CC2(Cc4cc(C5=CCN(S(C)(=O)=O)CC5)ncc4O2)C3)n1 [Example 24, 5-(1-Methanesulfonyl-1,2,3,6-tetrahydro-pyridin-4-yl)-1″-(3-n-propyl-[1,2,4]oxadiazol-5-yl)-dispiro[2,3-dihydrofuro[2,3-c]pyridine-2,1′-cyclobutane-3′,4″-piperidine]]
4	C[C@H](OC(=O)N1CCC2(CC1)CC1(Cc3cc(C4=CCN(S(C)(=O)=O)CC4)ncc3O1)C2)C(F)(F)F [Example 27, 1″-[(S)-2,2,2-Trifluoro-1-methyl-ethyloxycarbonyl]-5-(1-methanesulfonyl-1,2,3,6-tetrahydro-pyridin-4-yl)-dispiro[2,3-dihydrofuro[2,3-c]pyridine-2,1′-cyclobutane-3′,4″-piperidine]]
11	CCc1cnc(N2CCC3(CC2)CC2(Cc4cc(C5=CCN(S(C)(=O)=O)CC5)ncc4O2)C3)nc1 [Example 28, 1″-(5-Ethyl-pyrimidin-2-yl)-5-(1-methanesulfonyl-1,2,3,6-tetrahydro-pyridin-4-yl)-dispiro[2,3-dihydrofuro[2,3-c]pyridine-2,1′-cyclobutane-3′,4″-piperidine]]
4	CCCc1cnc(N2CCC3(CC2)CC2(Cc4cc(C5=CCN(S(C)(=O)=O)CC5)ncc4O2)C3)nc1 [Example 16, 5-(1-Methanesulfonyl-1,2,3,6-tetrahydro-pyridin-4-yl)-1″-(5-n-propyl-pyrimidin-2-yl)-dispiro[2,3-dihydrofuro[2,3-c]pyridine-2,1′-cyclobutane-3′,4″-piperidine]]
